Assay results: US7648979B2, “5-amido-(1H-indol-2-yl)-piperazin-1-yl-methanone derivatives” (Hoffmann-La Roche Inc., priority 2007, dated 2010)

The compounds below were run against histamine 3 receptor (H3R) (Homo sapiens, UniProt Q9Y5N1) (assay: Binding Assay with 3H-(R)α-methylhistamine (competition binding, membranes of human H3R-CHO cell line)). Details: competition with 3H(R)α-methylhistamine (1 nM), Ki calculated from IC50 by Cheng-Prusoff.
Method: Binding Assay with ^3H-(R)α-methylhistamine
Saturation binding experiments were performed using HR3-CHO membranes prepared as described in Takahashi, K, Tokita, S., Kotani, H. (2003) J. Pharmacol. Exp. Therapeutics 307, 213-218.
An appropriate amount of membrane (60 to 80 μg protein/well) was incubated with increasing concentrations of ^3H(R)α-Methylhistamine di-hydrochloride (0.10 to 10 nM). Non specific binding was determined using a 200 fold excess of cold (R)α-Methylhistamine dihydrobromide (500 nM final concentration). The incubation was carried out at room temperature (in deep-well plates shaking for three hours). The final volume in each well was 250 μl. The incubation was followed by rapid filtration on GF/B filters (pre-soaked with 100 μl of 0.5% PEI in Tris 50 mM shaking at 200 rpm for two hours). The filtration was made using a cell-harvester and the filter plates were then washed five times with ice cold washing buffer containing 0.5 M NaCl. After harvesting, the plates were dried at 55° C. for 60 min, then we added scintillation fluid (Microscint 40, 40 microl in each well) and the amount of radioactivity on the filter was determined in Packard top-counter after shaking the plates for two hours at 200 rpm at room temperature.
Binding Buffer: 50 mM Tris-HCl pH 7.4 and 5 mM MgCl2×6H2O pH 7.4. Washing Buffer: 50 mM Tris-HCl pH 7.4 and 5 mM MgCl2×6H2O and 0.5 M NaCl pH 7.4.
Indirect measurement of affinity of H3R inverse agonists: twelve increasing concentrations (ranging from 10 μM to 0.3 nM) of the selected compounds were always tested in competition binding experiments using membrane of the human H3R—CHO cell line. […]
All compounds were tested at a single concentration in duplicate. […] Ki's were calculated from IC50 based on Cheng-Prusoff equation (Cheng, Y, Prusoff, W H (1973) Biochem Pharmacol 22, 3099-3108): Ki=IC50/[1+D/Kd] wherein D is the concentration of the radioligand and Kd is the binding constant for the radioligand binding to the receptor under the conditions used in the competition experiment.

Chain of histamine 3 receptor (H3R) (Q9Y5N1 whole entry): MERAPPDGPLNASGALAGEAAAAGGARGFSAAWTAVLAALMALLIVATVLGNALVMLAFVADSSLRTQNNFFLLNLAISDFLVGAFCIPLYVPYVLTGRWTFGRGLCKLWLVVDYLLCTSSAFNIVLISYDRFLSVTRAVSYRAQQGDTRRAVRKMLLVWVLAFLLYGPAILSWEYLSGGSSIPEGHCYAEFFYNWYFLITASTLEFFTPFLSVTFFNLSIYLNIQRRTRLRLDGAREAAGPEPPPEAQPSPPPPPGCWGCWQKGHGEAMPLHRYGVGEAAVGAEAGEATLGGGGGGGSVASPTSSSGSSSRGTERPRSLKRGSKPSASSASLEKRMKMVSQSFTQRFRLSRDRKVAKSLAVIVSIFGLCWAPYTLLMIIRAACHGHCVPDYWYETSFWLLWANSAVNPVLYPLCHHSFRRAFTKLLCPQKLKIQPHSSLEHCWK

Ki [nM] | Structure (SMILES)
5.7 | CC(C)N1CCN(C(=O)c2ccc3c(c2)cc(C(=O)N2CCN(S(=O)(=O)c4ccccc4)CC2)n3-c2ccnc(Cl)c2)CC1 [Example 17, (4-Benzenesulfonyl-piperazin-1-yl)-[1-(2-chloro-pyridin-4-yl)-5-(4-isopropyl-piperazine-1-carbonyl)-1H-indol-2-yl]-methanone]
7.5 | CC(C)N1CCN(C(=O)c2ccc3c(c2)cc(C(=O)N2CCN(C(=O)N4CCCCC4)CC2)n3-c2ccnc(Cl)c2)CC1 [Example 19, [1-(2-Chloro-pyridin-4-yl)-5-(4-isopropyl-piperazine-1-carbonyl)-1H-indol-2-yl]-[4-(piperidine-1-carbonyl)-piperazin-1-yl]-methanone]
11.7 | CC(C)N1CCN(C(=O)c2ccc3c(c2)cc(C(=O)N2CCN(S(C)(=O)=O)CC2)n3-c2ccnc(Cl)c2)CC1 [Example 7, [1-(2-Chloro-pyridin-4-yl)-5-(4-isopropyl-piperazine-1-carbonyl)-1H-indol-2-yl]-(4-methanesulfonyl-piperazin-1-yl)-methanone]
